Consider 27 molecules from patent publication US9549932B2, “2-(morpholin-4-yl)-1,7-naphthyridines” (BAYER PHARMA AKTIENGESELLSCHAFT, priority 2014, dated 2017).

pIC50: −log10 of the molar value.

Chain of full-length human ATR protein (Q13535 other isoform, or with tags, fused parts or gaps): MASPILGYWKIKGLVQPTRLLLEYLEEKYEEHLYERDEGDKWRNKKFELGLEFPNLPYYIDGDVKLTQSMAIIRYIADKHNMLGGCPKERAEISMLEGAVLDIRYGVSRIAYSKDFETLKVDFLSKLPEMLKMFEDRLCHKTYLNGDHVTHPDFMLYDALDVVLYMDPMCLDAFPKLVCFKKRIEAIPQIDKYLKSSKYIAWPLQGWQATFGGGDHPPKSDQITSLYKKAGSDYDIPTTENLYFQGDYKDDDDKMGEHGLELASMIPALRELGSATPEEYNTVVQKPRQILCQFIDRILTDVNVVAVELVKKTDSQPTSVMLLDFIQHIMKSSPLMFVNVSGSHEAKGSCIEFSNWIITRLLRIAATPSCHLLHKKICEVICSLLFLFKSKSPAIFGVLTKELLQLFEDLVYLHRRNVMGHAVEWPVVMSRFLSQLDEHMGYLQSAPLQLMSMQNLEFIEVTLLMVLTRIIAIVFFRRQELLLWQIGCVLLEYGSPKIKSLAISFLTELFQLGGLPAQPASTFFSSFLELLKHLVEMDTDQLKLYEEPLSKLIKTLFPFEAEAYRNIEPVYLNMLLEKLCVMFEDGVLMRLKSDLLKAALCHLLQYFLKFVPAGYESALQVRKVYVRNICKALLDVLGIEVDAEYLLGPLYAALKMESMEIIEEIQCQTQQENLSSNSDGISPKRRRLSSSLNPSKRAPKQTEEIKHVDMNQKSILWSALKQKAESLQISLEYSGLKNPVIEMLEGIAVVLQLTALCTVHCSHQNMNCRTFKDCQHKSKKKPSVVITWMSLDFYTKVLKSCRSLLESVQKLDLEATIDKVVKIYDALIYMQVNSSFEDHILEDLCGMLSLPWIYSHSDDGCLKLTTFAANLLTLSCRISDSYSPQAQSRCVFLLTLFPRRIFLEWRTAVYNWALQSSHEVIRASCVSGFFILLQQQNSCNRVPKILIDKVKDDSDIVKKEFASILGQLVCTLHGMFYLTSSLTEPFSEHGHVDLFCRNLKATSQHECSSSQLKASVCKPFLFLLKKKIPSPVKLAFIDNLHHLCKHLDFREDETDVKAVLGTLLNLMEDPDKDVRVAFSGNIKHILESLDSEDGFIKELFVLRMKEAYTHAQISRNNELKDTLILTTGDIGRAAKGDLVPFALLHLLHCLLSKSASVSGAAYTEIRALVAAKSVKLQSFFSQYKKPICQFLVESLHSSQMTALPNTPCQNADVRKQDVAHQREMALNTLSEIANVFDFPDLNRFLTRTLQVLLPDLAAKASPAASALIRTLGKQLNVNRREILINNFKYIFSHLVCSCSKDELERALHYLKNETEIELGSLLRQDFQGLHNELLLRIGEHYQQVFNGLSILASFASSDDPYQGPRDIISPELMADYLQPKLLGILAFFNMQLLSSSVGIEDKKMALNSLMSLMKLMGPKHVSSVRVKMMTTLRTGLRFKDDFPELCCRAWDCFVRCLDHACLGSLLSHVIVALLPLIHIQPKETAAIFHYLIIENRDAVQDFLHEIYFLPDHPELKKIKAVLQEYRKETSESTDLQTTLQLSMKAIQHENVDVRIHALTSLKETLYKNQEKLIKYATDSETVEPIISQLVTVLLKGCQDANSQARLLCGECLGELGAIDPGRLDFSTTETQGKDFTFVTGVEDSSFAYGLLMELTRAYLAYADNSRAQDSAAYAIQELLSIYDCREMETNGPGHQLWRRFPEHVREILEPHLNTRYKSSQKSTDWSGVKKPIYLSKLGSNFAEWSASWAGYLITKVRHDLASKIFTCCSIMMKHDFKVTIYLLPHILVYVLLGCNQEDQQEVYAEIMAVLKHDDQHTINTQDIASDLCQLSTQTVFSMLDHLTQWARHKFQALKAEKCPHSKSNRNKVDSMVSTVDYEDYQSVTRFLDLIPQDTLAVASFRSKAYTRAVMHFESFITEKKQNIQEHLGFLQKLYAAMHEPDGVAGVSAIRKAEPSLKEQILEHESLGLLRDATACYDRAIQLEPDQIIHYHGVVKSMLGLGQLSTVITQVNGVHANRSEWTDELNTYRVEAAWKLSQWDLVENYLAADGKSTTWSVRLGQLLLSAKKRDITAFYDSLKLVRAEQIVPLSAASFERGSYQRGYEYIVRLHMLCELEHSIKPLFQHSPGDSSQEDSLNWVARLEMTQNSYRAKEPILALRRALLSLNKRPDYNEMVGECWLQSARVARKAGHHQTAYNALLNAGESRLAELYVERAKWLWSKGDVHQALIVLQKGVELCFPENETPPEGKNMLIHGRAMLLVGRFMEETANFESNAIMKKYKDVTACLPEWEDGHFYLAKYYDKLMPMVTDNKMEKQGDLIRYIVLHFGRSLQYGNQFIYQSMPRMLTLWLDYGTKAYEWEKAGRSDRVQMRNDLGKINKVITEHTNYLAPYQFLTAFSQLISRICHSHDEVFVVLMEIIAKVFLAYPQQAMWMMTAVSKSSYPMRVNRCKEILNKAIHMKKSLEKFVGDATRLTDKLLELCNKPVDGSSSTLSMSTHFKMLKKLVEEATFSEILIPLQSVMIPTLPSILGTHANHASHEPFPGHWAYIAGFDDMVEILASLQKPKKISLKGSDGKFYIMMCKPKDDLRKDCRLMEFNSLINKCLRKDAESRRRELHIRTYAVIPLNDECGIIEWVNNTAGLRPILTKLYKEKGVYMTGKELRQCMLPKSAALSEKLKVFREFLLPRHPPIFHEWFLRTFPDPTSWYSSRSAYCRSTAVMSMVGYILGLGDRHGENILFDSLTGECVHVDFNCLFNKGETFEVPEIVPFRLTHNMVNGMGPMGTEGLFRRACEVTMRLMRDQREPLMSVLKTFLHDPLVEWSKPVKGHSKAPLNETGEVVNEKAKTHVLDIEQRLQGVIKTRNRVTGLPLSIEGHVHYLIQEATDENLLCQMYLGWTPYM
Chain of full-length human ATR protein (Q8WXE1 other isoform, or with tags, fused parts or gaps partner): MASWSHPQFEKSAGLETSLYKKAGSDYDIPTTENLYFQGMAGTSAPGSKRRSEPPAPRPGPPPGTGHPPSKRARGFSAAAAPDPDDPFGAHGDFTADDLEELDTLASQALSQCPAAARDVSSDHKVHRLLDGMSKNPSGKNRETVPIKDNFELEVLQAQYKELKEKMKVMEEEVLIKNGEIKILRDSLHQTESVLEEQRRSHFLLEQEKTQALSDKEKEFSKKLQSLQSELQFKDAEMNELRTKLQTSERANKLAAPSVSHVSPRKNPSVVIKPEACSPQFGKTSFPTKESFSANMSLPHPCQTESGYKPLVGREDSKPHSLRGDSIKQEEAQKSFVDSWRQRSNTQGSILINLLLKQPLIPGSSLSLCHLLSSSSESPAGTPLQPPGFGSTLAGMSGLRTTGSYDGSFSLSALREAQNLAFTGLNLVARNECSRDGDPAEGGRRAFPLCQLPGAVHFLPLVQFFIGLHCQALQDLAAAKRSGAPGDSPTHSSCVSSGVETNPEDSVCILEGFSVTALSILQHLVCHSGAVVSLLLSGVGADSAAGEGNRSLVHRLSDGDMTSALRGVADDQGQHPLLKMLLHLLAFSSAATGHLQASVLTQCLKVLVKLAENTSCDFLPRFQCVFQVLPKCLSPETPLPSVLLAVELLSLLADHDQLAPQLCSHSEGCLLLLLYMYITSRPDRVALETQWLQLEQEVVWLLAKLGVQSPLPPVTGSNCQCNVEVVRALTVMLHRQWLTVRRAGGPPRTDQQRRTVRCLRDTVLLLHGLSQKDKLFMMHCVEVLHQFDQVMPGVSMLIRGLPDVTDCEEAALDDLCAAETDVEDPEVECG

The first assay addresses full-length human ATR protein (Homo sapiens (Human), UniProt Q13535). Briefly: Binding assay ATR (TR-FRET tracer displacement). As to conditions: tracer A, TR-FRET; read-out: ATR binding (tracer A) IC50. In short, it runs like this:
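Full-length human GST-ATR co-purified with ATRIP, pre-complexed 30 min at 22 °C with anti-GST-Tb antibody, then pre-bound with compound 10 min. Tracer A or B added (2 µl of 100 nM solution), 30 min at 22 °C.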
On the technique in general: TR-FRET usually uses a lanthanide donor and a delayed reading to cut background.
The pIC50 is the IC50 on a negative log10 scale, so that one unit is a factor of ten. With `CC(C)C(C)(O)c1cc(N2CCOC[C@H]2C)nc2c(-c3ccn[nH]3)nccc12` (stereo partly drawn) [Example 281, 3-methyl-2-{2-[(3R)-3-methylmorpholin-4-yl]-8-(1H-pyrazol-5-yl)-1,7-naphthyridin-4-yl}butan-2-ol], the pIC50 is 7.87.
For the molecule `C[C@@H]1COCCN1c1cc(C(C)(O)C2CCOCC2)c2ccnc(-c3ccn[nH]3)c2n1` (stereo partly drawn) [Example 282, 1-{2-[(3R)-3-methylmorpholin-4-yl]-8-(1H-pyrazol-5-yl)-1,7-naphthyridin-4-yl}-1-(tetrahydro-2H-pyran-4-yl)ethanol], the pIC50 is 7.90.
Take `CCCCC(C)(O)c1cc(N2CCOC[C@H]2C)nc2c(-c3ccn[nH]3)nccc12` (stereo partly drawn) [Example 284, 2-{2-[(3R)-3-methylmorpholin-4-yl]-8-(1H-pyrazol-5-yl)-1,7-naphthyridin-4-yl}hexan-2-ol]: the pIC50 is 7.38.
Still for that read-out and setting: under `C[C@@H]1COCCN1c1cc(C(N)=O)c2ccnc(-c3cc[nH]n3)c2n1` [Example 285, 2-[(3R)-3-methylmorpholin-4-yl]-8-(1H-pyrazol-3-yl)-1,7-naphthyridine-4-carboxamide] stands 6.29; under `C[C@@H]1COCCN1c1cc(C2(S(C)(=O)=O)CC2)c2ccnc(-c3ccn[nH]3)c2n1` [Example 286, 2-[(3R)-3-methylmorpholin-4-yl]-4-[1-(methylsulfonyl)cyclopropyl]-8-(1H-pyrazol-5-yl)-1,7-naphthyridine], 7.84.
On the same count and under the same terms, for `c1cc(-c2nccc3c(OCC4CCOCC4)cc(N4CCOCC4)nc23)[nH]n1` [Example 287, 2-(morpholin-4-yl)-8-(1H-pyrazol-5-yl)-4-(tetrahydro-2H-pyran-4-ylmethoxy)-1,7-naphthyridine] the value was 6.17; for `CN(C)C(=O)c1cccc(-c2cc(N3CCOCC3)nc3c(-c4ccn[nH]4)nccc23)c1` [Example 288, N,N-dimethyl-3-[2-(morpholin-4-yl)-8-(1H-pyrazol-5-yl)-1,7-naphthyridin-4-yl]benzamide], 6.46.
Same read-out and setting: under `O=C(c1ccc(-c2cc(N3CCOCC3)nc3c(-c4ccn[nH]4)nccc23)cc1)N1CCCCC1` [Example 289, {4-[2-(morpholin-4-yl)-8-(1H-pyrazol-5-yl)-1,7-naphthyridin-4-yl]phenyl}(piperidin-1-yl)methanone] stands 5.52.
As to `CN(C)C(=O)c1ccccc1-c1cc(N2CCOCC2)nc2c(-c3ccn[nH]3)nccc12` [Example 290, N,N-dimethyl-2-[2-(morpholin-4-yl)-8-(1H-pyrazol-5-yl)-1,7-naphthyridin-4-yl]benzamide], the pIC50 was 5.92.
On the same count and under the same terms, for `O=C(NC1CC1)c1ccc(-c2cc(N3CCOCC3)nc3c(-c4ccn[nH]4)nccc23)cc1` [Example 291, N-cyclopropyl-4-[2-(morpholin-4-yl)-8-(1H-pyrazol-5-yl)-1,7-naphthyridin-4-yl]benzamide] the value was 7.08.
Same read-out and setting: under `Cc1ccncc1-c1cc(N2CCOCC2)nc2c(-c3ccn[nH]3)nccc12` [Example 292, 4-(4-methylpyridin-3-yl)-2-(morpholin-4-yl)-8-(1H-pyrazol-5-yl)-1,7-naphthyridine] stands 6.97; under `c1cc(-c2nccc3c(-c4ccc5cc[nH]c5c4)cc(N4CCOCC4)nc23)[nH]n1` [Example 293, 4-(1H-indo1-6-yl)-2-(morpholin-4-yl)-8-(1H-pyrazol-5-yl)-1,7-naphthyridine], 6.48; under `c1cc(-c2cc(N3CCOCC3)nc3c(-c4ccn[nH]4)nccc23)c2cc[nH]c2c1` [Example 294, 4-(1H-indo1-4-yl)-2-(morpholin-4-yl)-8-(1H-pyrazol-5-yl)-1,7-naphthyridine], 7.43.
As to `NC(=O)c1cccc(-c2cc(N3CCOCC3)nc3c(-c4ccn[nH]4)nccc23)c1` [Example 295, 3-[2-(morpholin-4-yl)-8-(1H-pyrazol-5-yl)-1,7-naphthyridin-4-yl]benzamide], the pIC50 was 6.95.
On the same count and under the same terms, under `NC(=O)c1ccc(-c2cc(N3CCOCC3)nc3c(-c4ccn[nH]4)nccc23)cc1` [Example 296, 4-[2-(morpholin-4-yl)-8-(1H-pyrazol-5-yl)-1,7-naphthyridin-4-yl]benzamide] stands 7.11; under `CNC(=O)c1cccc(-c2cc(N3CCOCC3)nc3c(-c4ccn[nH]4)nccc23)c1` [Example 297, N-methyl-3-[2-(morpholin-4-yl)-8-(1H-pyrazol-5-yl)-1,7-naphthyridin-4-yl]benzamide], 6.92; under `Fc1cccc(-c2cc(N3CCOCC3)nc3c(-c4ccn[nH]4)nccc23)c1` [Example 298, 4-(3-fluorophenyl)-2-(morpholin-4-yl)-8-(1H-pyrazol-5-yl)-1,7-naphthyridine], 7.23.
Still for that read-out and setting: for `Clc1ccc(-c2cc(N3CCOCC3)nc3c(-c4ccn[nH]4)nccc23)s1` [Example 299, 4-(5-chlorothiophen-2-yl)-2-(morpholin-4-yl)-8-(1H-pyrazol-5-yl)-1,7-naphthyridine] the value was 7.26; for `COc1ccccc1-c1cc(N2CCOCC2)nc2c(-c3ccn[nH]3)nccc12` [Example 300, 4-(2-methoxyphenyl)-2-(morpholin-4-yl)-8-(1H-pyrazol-5-yl)-1,7-naphthyridine], 6.74.
On the same count and under the same terms, for `FC(F)(F)c1ccccc1-c1cc(N2CCOCC2)nc2c(-c3ccn[nH]3)nccc12` [Example 301, 2-(morpholin-4-yl)-8-(1H-pyrazol-5-yl)-4-[2-(trifluoromethyl)phenyl]-1,7-naphthyridine] the value was 7.67; for `FC(F)(F)c1ccc(-c2cc(N3CCOCC3)nc3c(-c4ccn[nH]4)nccc23)cc1` [Example 302, 2-(morpholin-4-yl)-8-(1H-pyrazol-5-yl)-4-[4-(trifluoromethyl)phenyl]-1,7-naphthyridine], 6.73; for `FC(F)(F)c1cccc(-c2cc(N3CCOCC3)nc3c(-c4ccn[nH]4)nccc23)c1` [Example 303, 2-(morpholin-4-yl)-8-(1H-pyrazol-5-yl)-4-[3-(trifluoromethyl)phenyl]-1,7-naphthyridine], 7.06.
For `Clc1cccc(-c2cc(N3CCOCC3)nc3c(-c4ccn[nH]4)nccc23)c1` [Example 304, 4-(3-chlorophenyl)-2-(morpholin-4-yl)-8-(1H-pyrazol-5-yl)-1,7-naphthyridine], the pIC50 is 7.24.
Same read-out and setting: under `CC(=O)Nc1cccc(-c2cc(N3CCOCC3)nc3c(-c4ccn[nH]4)nccc23)c1` [Example 305, N-{3-[2-(morpholin-4-yl)-8-(1H-pyrazol-5-yl)-1,7-naphthyridin-4-yl]phenyl}acetamide] stands 6.88.
As to `COc1cccc(-c2cc(N3CCOCC3)nc3c(-c4ccn[nH]4)nccc23)c1` [Example 306, 4-(3-methoxyphenyl)-2-(morpholin-4-yl)-8-(1H-pyrazol-5-yl)-1,7-naphthyridine], the pIC50 is 7.08.
Turning to `COc1cc(OC)cc(-c2cc(N3CCOCC3)nc3c(-c4ccn[nH]4)nccc23)c1` [Example 307, 4-(3,5-dimethoxyphenyl)-2-(morpholin-4-yl)-8-(1H-pyrazol-5-yl)-1,7-naphthyridine], the pIC50 is 6.72.
On to `Cc1cccc(-c2cc(N3CCOCC3)nc3c(-c4ccn[nH]4)nccc23)c1` [Example 308, 4-(3-methylphenyl)-2-(morpholin-4-yl)-8-(1H-pyrazol-5-yl)-1,7-naphthyridine], for which the pIC50 is 6.88.

The same assay, now with this note: tracer B, TR-FRET; read-out: ATR binding (tracer B) IC50.
With `c1cc(-c2nccc3c(OCC4CCOCC4)cc(N4CCOCC4)nc23)[nH]n1` [Example 287, 2-(morpholin-4-yl)-8-(1H-pyrazol-5-yl)-4-(tetrahydro-2H-pyran-4-ylmethoxy)-1,7-naphthyridine], the negative-log IC50 (pIC50) was 6.34.
